# Reference: US11807873B2, “Conversion of S-lignin compounds to useful intermediates” (Alliance for Sustainable Energy, LLC, priority 2020, dated 2023)
# T1: PcaHG (PCA 3,4-dioxygenase) (Pseudomonas putida, UniProt P00436+P00437)
# T1 construct: poly-histidine tag with TEV protease site (N, cleaved yes); made in house; host or cells: E. coli BL-21 λ(DE3)
# T1 sequence (P00437 1-239): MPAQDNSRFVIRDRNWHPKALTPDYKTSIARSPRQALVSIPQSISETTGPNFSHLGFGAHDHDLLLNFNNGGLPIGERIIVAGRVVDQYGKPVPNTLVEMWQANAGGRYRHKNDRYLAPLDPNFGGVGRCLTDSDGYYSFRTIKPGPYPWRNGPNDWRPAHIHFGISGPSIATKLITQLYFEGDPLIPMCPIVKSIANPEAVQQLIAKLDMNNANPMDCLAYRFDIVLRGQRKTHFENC
# T1 sequence (P00436 2-201 limits assumed): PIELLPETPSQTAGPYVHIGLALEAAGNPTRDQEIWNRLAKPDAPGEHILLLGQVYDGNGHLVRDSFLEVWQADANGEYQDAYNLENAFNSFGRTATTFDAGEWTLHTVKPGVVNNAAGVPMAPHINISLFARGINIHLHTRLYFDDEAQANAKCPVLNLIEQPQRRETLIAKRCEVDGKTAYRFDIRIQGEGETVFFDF
# B1: PcaHG (PCA 3,4-dioxygenase) (Pseudomonas putida) (protein)
# chain 1: T1 sequence (P00437 1-239)
# chain 2: T1 sequence (P00436 2-201 limits assumed)
# notes: poly-histidine tag with TEV protease site (N, cleaved yes); made in house; host or cells: E. coli BL-21 λ(DE3)
# B2: GalA (gallate 3,4-dioxygenase) (Pseudomonas putida KT2440) (protein)
# chain: MARIIGGLAVSHTPTIGFAVDHDKQEEAAWAPIFESFEPIRTWLQQRQPDVLFYIFNDHITSFFFDHYSAFTLGVDEQYGVADEGGNPRDLPPVGGHAALSRHIGQSLMADEFDMSFFRDKPLDHGFFSPMSALLPCDESWPVQIVPLQVGVLQLPIPTARRCYKLGQALRRAIESYPEDLKVAIVATGGVSHQVHGERCGFNNPEWDAQFLDLLVNDPQRLTEMTLAEYATLGGMEGAEVITWLIMRGTLSANVERKHQSYYLPSMTGIATLLLENRDQALPAPVNERHRQHMQHQLAGAEQLEGTYPYTLERSAKGYRLNKFLHRMIEPQWRQRFLSEPEALYREAGLSEEESDLLRRRDWRGLIHYGVIFFVLEKLGAVLGVSNLDIYAAMRGQSIEDFMKTRNQQVRYSVAGKAPN
# Assays:
# [1] = target: GalA (gallate 3,4-dioxygenase) (Pseudomonas putida, UniProt Q88JX5); experiment: GalA inactivation kinetic analyses during turnover; assay type: biochemical
# From the text: (§1) GalA preparations had 0.5 equivalents of Fe per mol GalA. GalA cleaved GA with 3-fold higher specificity (˜9×10^5 s^−1 M^−1, see Table 3, FIG. 20) than previously reported. The partition ratio for GA was ˜1900 based on 02 consumption for given amount of GalA (see Table 3, Equation 1). […] Because high concentrations of GalA were needed to detect 3MGA-cleavage activity, cell lysates were used to investigate the inactivation of GalA by 3MGA. Importantly, the inactivation of GalA by GA was similar for the purified enzyme in E. coli lysate (j3^app˜3×10^−2 s^−1, Table 3, FIG. 21). The apparent rate constant of inactivation of GalA by 3MGA was less than 50% higher than for GA (see Table 3).
# Inactivation kinetic analyses: GalA inactivation assays were performed by monitoring consumption of 02 using OXYG1 as described in Steady-state kinetic analyses. […] To obtain soluble E. coli lysate containing GalA, 50 mL of culture was suspended in ˜900 μL of 50 mM HEPPS, pH 8.0, 100 mM NaCl. The resuspension was pipetted into a 1.5 mL screw cap tube containing ˜100 μL of 0.1 mm silica sand. Cell were lysed using a Bead Beater rotor (MP Biomedical). Cellular debris and sand were removed by centrifugation. The clarified was removed to a micro centrifuge tube and kept on ice until use.
# (§2) The amount of GalA added to the assay was such that the enzyme was completely inactivated before 10% of either the catecholic substrate or 02 was consumed in the reaction mixture. The partition ratio was calculated using Equation 1 shown above.
# (§3) The apparent apparent rate constant of inactivation during catalytic turnover in air-saturated buffer, j3^app, was determined by fitting Equation 2 to reaction progress curves where St is the substrate concentration at time t. st=(s0−s∞)e^−j^3^app^t+s∞ Equation 2
# [2] = target: T1, PcaHG (PCA 3,4-dioxygenase); experiment: PcaHG steady-state kinetics, oxygraph and spectrophotometric assays; assay type: biochemical, P. putida KT2440
# Method: (§4) Steady-state kinetic analyses: Kinetic assays were performed by monitoring the consumption of O2 using a Clark-type polarographic O2 electrode OXYG1 (Hansatech) connected to a circulating water bath. Assays with the exception of GalA were performed in 1 mL of air-saturated 40 mM HEPES, 80 mM NaCl (I=0.1 M, pH 7.5) at 25° C. GalA assays were performed in 40 mM MOPS, 80 mM NaCl (I=0.1 M, pH 7.0) at 30° C. The electrode was calibrated daily according to the manufacturer's instructions using air-saturated buffer and water depleted of 02 via addition of sodium hydrosulfite. Stock solutions were prepared fresh daily. The background rate of O2-consumption was recorded prior to initiating the reaction and was subtracted from the measured reaction rate. Steady-state kinetic parameters were evaluated by fitting the Michaelis-Menten equation to the data using the least-squares fitting of LEONORA.
# (§5) Stock solutions of the substrates were made in dimethylsulfoxide (DMSO). The final concentration of DMSO in the assay solutions was <1% (v/v). […] The reaction was initiated by adding 0.1 μM PcaHG.
# [3] = target: T2, VanAB (vanillate O-demethylase) (Pseudomonas putida, UniProt Q88GI6); experiment: VanAB steady-state kinetics, O2 consumption (oxygraph)
# Method: In evaluating the parameters for VA, 0.4 μM VanA was used to ensure steady-state conditions at low concentrations of VA.
# as §4
# For VanAB, the standard reaction contained 1 μM VanA, 2 μM Ht-VanB, and 400 μM NADH. […] Stock solutions of the substrates were made in dimethylsulfoxide (DMSO). The final concentration of DMSO in the assay solutions was <1% (v/v). For PcaHG, the standard reaction contained 250 μM PCA. The reaction was initiated by adding 0.1 μM PcaHG. […] The reaction was initiated by adding 0.05 μM GalA.
# [4] = target: T2, VanAB (vanillate O-demethylase); experiment: VanAB coupling of O-demethylation to O2 consumption (HPLC-based assay); assay type: biochemical, P. putida KT2440; details: quenched after ~100 μM O2 consumed; for Coupling Substrate/O2: ratio of aromatic substrate consumed:O2 consumed; for Coupling Product/O2: ratio of product produced:O2 consumed
# Method: The ability of VanAB to catalyze the O-demethylation of VA, SA, and 3MGA was evaluated first. Using an HPLC-based assay, the enzyme transformed VA, SA, and 3MGA to PCA, 3MGA, and GA, respectively (see FIG. 14). When reactions were quenched after ˜100 μM of O2 was consumed, the amounts of substrate consumed, and product detected, were equal to the amount of O2 consumed within error (see Table 3). […] However, in the absence of VanA, VanB consumed NADH and O2 to produce H2O2 in the presence of SA. This adventitious consumption of NADH and O2 was not observed in the presence of VA or 3MGA. Further, in reactions containing 2 μM VanB, 1 μM VanA completely outcompeted the reaction of SA with VanB.
# HPLC characterization of transformation products and flavin content: Oxygenase turnover and VanB flavin content were evaluated using a Waters 2695 Separation HPLC module (Milford, MA) equipped with a Waters 2996 photodiode array detector. VanAB reactions contained ˜1 μM VanA, ˜1 μM VanB and 200 μM substrate in air-saturated HEPES (I=0.1 M, pH 7.5). Reactions were incubated for 30 min at 25° C., quenched with glacial acetic acid (final concentration 10% (v/v)), then centrifuged and filtered (0.2 μm) to remove protein. Substrates and products were resolved using a 250×4.6 mm Luna 5 m C18(2) column (Phenomenex, Torrance, CA) and a linear gradient of 0.1% formic acid and methanol. Compound amounts were assessed using integrated peak areas at 260 nm and standard curves for each compound.
# [5] = tested on: wild-type P. putida KT2440; experiment: Toxicity effects on growth of wild-type strain (OD600); assay type: cell-based, Pseudomonas putida KT2440; details: M9 minimal media, 20 mM glucose
# Method: Error bars represent the absolute value of two biological replicates.
# Bacterial strains, media, and cultivations: Pseudomonas putida KT2440 (ATCC® 47054) was utilized as the wild-type and base strain for all further engineering. Gene deletion, insertion, or replacements in P. putida KT2440 were performed using the antibiotic/sacB counter-selection method as previously described. Diagnostic colony PCR was performed with MyTaq® HS Red Mix (Bioline, USA) to confirm gene deletion, insertion, or replacement (see Table 3 and Table 8). M9 minimal medium was prepared as 6.78 g/L Na2HPO4, 3 g/L KH2PO4, 0.5 g/L NaCl, 1 g/L NH4Cl, 2 mM MgSO4, 100 μM CaCl2), and 18 μM FeSO4, pH 7.0. […] Sodium formate (Sigma, USA) was used to prepare formate stocks in water. Stocks of syringaldehyde were made in 2% (v/v) DMSO. Glucose at 1 M concentration (Sigma, USA) was prepared in water. All carbon sources were 0.2 μm filtered prior to media addition. KT2440 strains were revived from glycerol stocks in LB medium overnight at 30° C. prior to washing in M9 minimal medium. Washed cells were inoculated to an OD600 of 0.1 in 25 mL of M9 minimal media supplemented with the specified carbon/energy source in 125 mL baffled flasks and incubated at 30° C., 225 rpm in biological duplicate or triplicate, as indicated. In the case of 3MGA, the culture volume was reduced to 10 mL in 50 mL baffled flasks due to the cost of this substrate. […] In the case of formate feeding, cultivations were subsequently pH adjusted to pH 7.1-7.3 with formic acid, which provided an additional 0.13-1.75 mmol of formate. To measure cell growth and quantify metabolites, cultures were sampled by removing 1 mL, measuring OD600 of a 1:10 or 1:100 dilution, centrifuging to pellet the cells, and blanking with the OD600 of the supernatant to account for darkening of some cultures due to oxidation of intermediates.
# In vivo reactions: Wild-type P. putida KT2440 and engineered strains were cultivated overnight in LB medium and centrifuged. […] Flasks were inoculated to an OD600 of 0.1 and incubated at 30° C., 225 rpm. Cultures were sampled periodically by removing 1 mL that was used to measure the OD600 as well as metabolite analysis (see below). Shake flask experiments were performed in triplicate. In the case of 3-MGA, the culture was downscaled to 10 mL in 50 mL baffled flasks and performed in duplicate.
# [6] = substrate: O=C(O)c1cc(O)c(O)c(O)c1; experiment: PcaHG steady-state kinetics, oxygraph and spectrophotometric assays; assay type: biochemical, P. putida KT2440; details: other: air-saturated HEPES (I = 0.1M), pH 7.5, 25° C
# Method: as §4, §5
# [7] = substrate: O=C(O)c1cc(O)c(O)c(O)c1; experiment: GalA steady-state kinetics, O2 consumption (oxygraph); assay type: biochemical, P. putida KT2440; details: other: air-saturated 40 mM MOPS, 80 mM NaCl (I = 0.1M, pH 7.0), 30° C
# Method: Steady-state kinetic analyses: Kinetic assays were performed by monitoring the consumption of O2 using a Clark-type polarographic O2 electrode OXYG1 (Hansatech) connected to a circulating water bath. […] GalA assays were performed in 40 mM MOPS, 80 mM NaCl (I=0.1 M, pH 7.0) at 30° C. The electrode was calibrated daily according to the manufacturer's instructions using air-saturated buffer and water depleted of 02 via addition of sodium hydrosulfite. Stock solutions were prepared fresh daily. The background rate of O2-consumption was recorded prior to initiating the reaction and was subtracted from the measured reaction rate. Steady-state kinetic parameters were evaluated by fitting the Michaelis-Menten equation to the data using the least-squares fitting of LEONORA.
# Stock solutions of the substrates were made in dimethylsulfoxide (DMSO). The final concentration of DMSO in the assay solutions was <1% (v/v). […] The reaction was initiated by adding 0.05 μM GalA.
# [8] = substrate: COc1cc(C(=O)O)cc(O)c1O; experiment: GalA inactivation kinetic analyses during turnover; assay type: biochemical; details: other: calculated from j3^app and partition ratio, MOPS (I = 0.1M, pH 7.0), 30° C
# From the text: as §1
# Inactivation kinetic analyses: GalA inactivation assays were performed by monitoring consumption of 02 using OXYG1 as described in Steady-state kinetic analyses. […]
# as §2, §3
# T2 sequence (Q88GI6 entry or part of it): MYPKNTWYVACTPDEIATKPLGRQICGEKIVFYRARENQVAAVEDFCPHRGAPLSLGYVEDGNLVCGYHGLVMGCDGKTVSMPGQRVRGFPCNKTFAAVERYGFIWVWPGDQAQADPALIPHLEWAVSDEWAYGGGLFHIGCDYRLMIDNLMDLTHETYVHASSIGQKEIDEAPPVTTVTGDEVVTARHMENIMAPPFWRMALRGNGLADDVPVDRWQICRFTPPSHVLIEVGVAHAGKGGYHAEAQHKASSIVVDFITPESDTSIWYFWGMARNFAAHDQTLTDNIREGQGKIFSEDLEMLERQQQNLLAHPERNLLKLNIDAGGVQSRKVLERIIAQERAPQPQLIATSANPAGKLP
# T2 sequence (Q88GI5 entry or part of it, further chain): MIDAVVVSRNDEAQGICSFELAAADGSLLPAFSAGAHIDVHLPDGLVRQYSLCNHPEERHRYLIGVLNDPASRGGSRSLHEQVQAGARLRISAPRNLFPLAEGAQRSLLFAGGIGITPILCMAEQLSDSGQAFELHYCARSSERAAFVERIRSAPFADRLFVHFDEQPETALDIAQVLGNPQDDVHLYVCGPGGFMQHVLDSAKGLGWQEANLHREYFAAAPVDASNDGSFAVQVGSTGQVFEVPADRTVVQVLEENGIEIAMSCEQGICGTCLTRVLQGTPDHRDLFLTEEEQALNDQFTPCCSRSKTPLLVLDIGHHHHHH
molecule,measurement,setting,value
"COc1cc(C(=O)O)cc(O)c1O [3MGA, 3-O-methylgallate]","apparent rate constant of inactivation of GalA, higher than for GA",[1],less than 50%
same,kcat^app relative to that for GA,[1],~0.025%
same,partition ratio relative to that for GA,[1],0.2%
same,j3^app (apparent rate constant of inactivation during turnover),"[1]; air-saturated 40 mM MOPS, 80 mM NaCl (I = 0.1M, pH 7.0), 30° C",3.8 ± 0.3 ×10^−2 s^−1
same,Partition Ratio,[1]; calculated from the O2 consumption for a given amount of GalA,3.3 ± 0.6
same,cleavage by PcaHG,[2]; oxygraph and spectrophotometric assays,did not detectably cleave
same,apparent specificity of VanAB relative to that for VA,[3]; O-demethylation,~1%
same,Coupling Substrate/O2,[4],1.0 ± 0.1 mol:mol
same,Coupling Product/O2,[4],1.1 ± 0.2 mol:mol
"O=C(O)c1ccc(O)c(O)c1 [PCA, protocatechuate]",specific activity of purified PcaHG,[2],3.8 U/mg
same,kcat^app,"[2]; air-saturated HEPES (I = 0.1M), pH 7.5, 25° C",0.95 ± 0.03 s⁻¹
same,Km,"[2]; air-saturated HEPES (I = 0.1M), pH 7.5, 25° C, read-out: KM^app",33 ± 2 µM
"COc1cc(C(=O)O)cc(OC)c1O [SA, syringate]",toxicity to P. putida KT2440 compared with VA,[5],more toxic
same,growth at 120 mM substrate,[5],able to grow
"COc1cc(C=O)cc(OC)c1O [SAL, syringaldehyde]",toxicity to P. putida KT2440 compared with VA,[5],more toxic
"COc1cc(C(=O)O)ccc1O [VA, vanillate]",apparent specificity of VanAB,[3]; 0.4 μM VanA,~200000 s⁻¹ M⁻¹
same,Coupling Substrate/O2,[4],1.3 ± 0.2 mol:mol
same,Coupling Product/O2,[4],1.1 ± 0.1 mol:mol
same,growth at 120 mM substrate,[5],not
B1,Km,[6],15 ± 2 µM
same,kcat,[6],0.0675 ± 0.0003 s⁻¹
same,kcat/Km,[6],0.51 ± 0.06 ×10^4 s^−1 · M^−1
B2,Km,[7],59 ± 5 µM
same,kcat,[7],52 ± 4 s⁻¹
same,kcat/Km,[7],90 ± 10 ×10^4 s^−1 · M^−1
same,kcat,[8],0.012 ± 0.002^d s^−1
